The values below come from the supplement of paper PMC10307832.

Assay in all cases: relative viability (nuclei count vs DMSO), 5 days (fraction); higher = more cells survive
Compound in the experiment “AZ3146 + Tozasertib”: CN1CCC(CC1)OC2=CC(=C(C=C2)NC3=NC=C4C(=N3)N(C(=O)N4C)C5CCCC5)OC [AZ3146] + Cc1cc(Nc2cc(N3CCN(C)CC3)nc(Sc3ccc(NC(=O)C4CC4)cc3)n2)n[nH]1 [Tozasertib] (partner 0.1 µM)
The procedure, abridged:
(§1)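 Relative viability was taken as the ratio of nuclei in treated wells to nuclei in vehicle wells. Lung cancer cell lines in 1536-well plates received compounds by pin tool one day after seeding, either one drug alone or a fixed anchor-drug dose plus five library-drug doses (not always all listed) in √10 steps. Nuclei were counted on 4× images after 5 days of treatment, and values are medians of duplicate plates.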

Compound in the experiment “AZ3146 + Linsitinib”: CN1CCC(CC1)OC2=CC(=C(C=C2)NC3=NC=C4C(=N3)N(C(=O)N4C)C5CCCC5)OC [AZ3146] + C[C@]1(O)C[C@@H](c2nc(-c3ccc4ccc(-c5ccccc5)nc4c3)c3c(N)nccn32)C1 [Linsitinib] (partner 1 µM)
In short, it runs like this:
as §1

Compound in the experiment “GSK-J4 + Navitoclax”: CCOC(=O)CCNc1cc(N2CCc3ccccc3CC2)nc(-c2ccccn2)n1 [GSK-J4] + CC1(C)CCC(c2ccc(Cl)cc2)=C(CN2CCN(c3ccc(C(=O)NS(=O)(=O)c4ccc(N[C@H](CCN5CCOCC5)CSc5ccccc5)c(S(=O)(=O)C(F)(F)F)c4)cc3)CC2)C1 [Navitoclax] (partner 0.5 µM)
In short, it runs like this: as §1

Compound in the experiment “GSK-J4 + OSI-027”: CCOC(=O)CCNc1cc(N2CCc3ccccc3CC2)nc(-c2ccccn2)n1 [GSK-J4] + COc1cccc2cc(-c3nc([C@H]4CC[C@H](C(=O)O)CC4)n4ncnc(N)c34)[nH]c12 [OSI-027] (partner 0.5 µM)
In short, it runs like this: as §1

Turning to UMC-11, the relative viability with AZ3146 + Tozasertib (first compound 0.08 µM) stood at 0.177; in the experiment with AZ3146 + Tozasertib (first compound 0.253 µM), 0.199; in the experiment with AZ3146 + Tozasertib (first compound 0.8 µM), 0.204; with AZ3146 + Tozasertib (first compound 2.53 µM), 0.177; with AZ3146 + Tozasertib (first compound 8 µM), 0.183; with AZ3146 + Linsitinib (first compound 0.08 µM), 0.989. For the same cell line, the relative viability in the experiment with AZ3146 + Linsitinib (first compound 0.253 µM) is 1.05; in the experiment with AZ3146 + Linsitinib (first compound 0.8 µM), 0.992; with AZ3146 + Linsitinib (first compound 2.53 µM), 0.922; in the experiment with AZ3146 + Linsitinib (first compound 8 µM), 0.577; with GSK-J4 + Navitoclax (first compound 0.5 µM), 0.332; with GSK-J4 + Navitoclax (first compound 1.581 µM), 0.233. The relative viability was found to be 0.341 with GSK-J4 + Navitoclax (first compound 5 µM); 0.305 with GSK-J4 + Navitoclax (first compound 15.81 µM); 0.179 with GSK-J4 + Navitoclax (first compound 50 µM); 0.474 with GSK-J4 + OSI-027 (first compound 0.5 µM); 0.362 with GSK-J4 + OSI-027 (first compound 5 µM); 0.423 with GSK-J4 + OSI-027 (first compound 15.81 µM). For the same cell line, the relative viability with GSK-J4 + OSI-027 (first compound 50 µM) was found to be 0.34.
